Literature values as cited in patent US20020082306A1, “Aqueous formulation of beta carotene” (Sanochemia Pharmazeutika Aktiengesellschaft, priority 1998, published 2002).

Tests used:
[1] = in the presence of light and heat

solubility in cyclohexane (cyclohexane): hardly soluble
solubility in ethanol (ethanol): hardly soluble
solubility in ether (ether): hardly soluble
solubility in water (water as well as the usually employed aqueous formulations): practically insoluble
decomposition of dissolved beta-carotene by oxygen from ambient air [1]: easily decomposed
SMILES: CC1=C(/C=C/C(C)=C/C=C/C(C)=C/C=C/C=C(C)/C=C/C=C(C)/C=C/C2=C(C)CCCC2(C)C)C(C)(C)CCC1 [Beta-carotene, beta-carotene]
